Reference: publication PMC10350923, “In Vitro and In Vivo Biological Activities of Dipicolinate Oxovanadium(IV) Complexes” (Journal of Medicinal Chemistry, 2023)
Where “and” joins values, the source holds several entries; their conditions need not be identical. Identical values can stand only once. Like-named read-outs stand apart in the source and are kept apart here.

What was measured:
[1] = system: normal human primary dermal fibroblasts; assay: MTS cell viability assay, fibroblasts
Experimental: (§7) To assess the cytotoxicity of vanadium complexes in tumor and healthy cells, the MTS assay, a colorimetric method that allows the quantification of viable cells present in solution,[71] was performed.
Cell culture and maintenance
(§8) The A2780 cancer cell line (ovarian carcinoma) was purchased from Sigma-Aldrich (Madrid, Spain)
(§9) while HCT116 cancer cell line (colorectal carcinoma) and the normal human primary dermal
(§10) fibroblasts were obtained from American Type Culture Collection (ATCC®, Manassas, VA, USA).
(§11) HCT116 Dox-resistant cell line (HCT116-DoxR) was derived from HCT116 parental cells, as
(§12) All cells were cultured in Dulbecco’s modified Eagle medium (DMEM), except the A2780 cell line
(§13) which was cultured in RPMI (Roswell Park Memorial Institute) medium. Both media were
(§14) supplemented with 10% (v/v) fetal bovine serum (FBS) and 1% (v/v) of a Pen/Strep
(§15) (Penicillin/Streptomycin) solution. HCT116-DoxR cell medium was additionally supplemented with
(§16) All media and supplements were purchased from Thermo Fischer Scientific (Waltham, Massachusetts, USA).
(§17) (SANYO CO2 Incubator, Electric Biomedical Co., Osaka, Japan).
(§18) HCT116, HCT116-DoxR and A2780 cancer cell lines and normal human primary fibroblasts were
(§19) used in cellular viability assays. Cells were seeded in a density of 0.75×10^5 cells/mL into 96 well-
(§20) After the 24 h of incubation, complexes were
(§21) weight and immediately solubilized in 100% (v/v) DMSO and then, diluted for the final concentration
(§22) with cell culture medium. The medium in each 96 well-plates will be replaced by fresh medium
(§23) containing each vanadium complex (concentrations ranging from 0.01 µM to 50 µM). Culture medium
(§24) with 0.1% (v/v) DMSO and 0.4 µM Dox were used as negative and positive controls, respectively.

[2] = system: HCT116-DoxR (doxorubicin-resistant colorectal carcinoma cell line); assay: MTS cell viability assay, HCT116-DoxR;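 further: MTS colorimetric quantification of viable cells, with loss of viability tracked as complex concentration rises, in DMEM-grown HCT116-DoxR, a line whose resistance involves P-glycoprotein efflux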
Experimental: as §7
Cell culture and maintenance
as §8, §9, §10, §11, §12, §13, §14, §15, §16, §17, §18, §19, §20, §21, §22, §23, §24

[3] = system: caspase-8; assay: Caspase-8 activity, IETD-pNA cleavage; assay type: cell-based, human; conditions: HCT116-DoxR, 48 h; complexes at IC50, cisplatin 5 μM
Experimental: Since caspase-8 is an initiator caspase of the extrinsic apoptotic pathway, its activity was evaluated after HCT116-DoxR cells were exposed to complexes 5 and 8 (Figure 8).
The chromogenic substrate IETD-pNA, which results from the conjugation between the peptide IETD (Ile-Glu-Thr-Asp) and the chromophore p-nitroanilide (pNA), is cleaved by caspase-8 and releases pNA, which can be detected by measuring absorbance at 400 nm.[99] Therefore, if complexes 5 and 8 induce cell death through the extrinsic apoptotic pathway, there is an increase in absorbance at 400 nm compared to the control sample, corresponding to an increase in caspase-8 activity that is translated into the cleavage of the substrate IETD-pNA (Figure 8).
Antibody; Cell Signalling Technology, USA).
Assay Kit (Abnova Corporation, Walnut, CA, USA).
vanadium complexes at its IC50 concentrations.
Cells were then incubated
Flow Cytometer (Life Technologies, Carlsbad, USA).
HCT116-DoxR cell line was cultivated

[4] = system: A2780 (ovarian carcinoma cell line); assay: MTS cell viability assay, A2780; assay type: cell-based, human; conditions: 48 h of exposure, mean ± SEM
[5] = system: HCT116 (colorectal carcinoma cell line); assay: MTS cell viability assay, HCT116; assay type: cell-based, human; conditions: 48 h of exposure, mean ± SEM
[6] = system: HCT116-DoxR cells; assay: Alexa Fluor 488-annexin V/PI apoptosis assay, flow cytometry; assay type: cell-based, human; conditions: 48 h
[7] = system: HCT116-DoxR cells; assay: Autophagy induction, Green Detection Reagent, flow cytometry; conditions: 48 h, complexes at IC50, cisplatin 5 μM, Dox 6 μM
[8] = system: HCT116-DoxR cells; assay: Cell cycle progression, PI, flow cytometry; conditions: HCT116-DoxR, 3, 9, 24, 32 h; complexes at IC50, cisplatin 5 μM, Dox 6 μM
[9] = n-octanol/PBS buffer partition coefficient, shake-flask, UV-vis; conditions: room temperature
Experimental: The lipophilicity of V(IV) complexes was investigated using the classical shake-flash method at room temperature in the two-phase system of immiscible solvents n-octanol/PBS buffer.[69],[70] The transfer of V(IV) compounds from the aqueous environment to the organic phase was monitored by UV–vis spectroscopy.
The n-octanol/PBS buffer partition coefficients (logP) were determined by shake-flash approach, and
the transfer of V(IV) compounds from the aqueous environment to the organic phase was monitored
by UV-Vis spectroscopy5,6. Solutions of 1–10 of concentrations in the range 10-100 M were prepared
in PBS buffer saturated with n-octanol from the freshly-prepared stock solution in DMSO (5mM or 50
mM), and their UV-Vis spectra were recorded. The solution of 1–10 in aqueous buffer (3 ml) were
mixed with n-octanol saturated with pH 7.4 aqueous buffer (3 ml), and the obtained mixtures were
stirred in a mechanical shaker for 30 min. The mixtures were allowed to stand at room temperature for
24 h, and after this time, the aqueous phases were separated, and the concentrations of 1–10 were
determined by measuring their UV-Vis spectra. For each complex, the highest energy absorption band was taken into consideration to determine the sample concentration.

[10] = Stability and solubility in RPMI culture medium, UV-vis; assay type: physicochemical; conditions: UV-vis at 0, 24, 48 h
[11] = system: HCT116-DoxR cells; assay: Cell internalization by ICP-AES; assay type: cell-based, human; conditions: 3 h exposure to 10x IC50, ICP-AES
[12] = molecular target: T1, BSA (bovine serum albumin) (Bos taurus, UniProt P02769); assay: BSA binding, UV-vis and fluorescence spectroscopy
T1 construct: I (1–195), II (196–383), and III (384–583)

[13] = system: HCT116-DoxR spheroids; assay: MTS assay in 3D spheroids; assay type: cell-based, human; conditions: HCT116-DoxR spheroids 6- to 8-day-old, 48 h
[14] = system: HCT116-DoxR cells; assay: ROS production, H2DCF-DA, flow cytometry; assay type: cell-based, human; conditions: 48 h, IC50
Experimental: Thus, the level of ROS present in HCT116-DoxR cells after their exposure to vanadium complexes was quantified (Figure 10). The probe 2′,7′-dichlorohydrofluorescein diacetate (H2DCF-DA), which diffuses into cells and is deacetylated by cellular esterases resulting in a nonfluorescent compound, was used. Inside the cell, this molecule is oxidized by ROS and then originates the fluorescent molecule 2′,7′-dichlorofluorescein (DCF) that can be detected by flow cytometry.[103]
(§1) finishing the 48 h period.
(§2) Attune® Cytometric software.
(§3) Butyl hydroperoxide) were used as controls.
(§4) Cells were later analysed
(§5) (double thymidine block).
(§6) After this, the pellet was resuspended in
Control solutions were also prepared, namely a […]

[15] = system: chick chorioallantoic membrane; assay: Ex ovo chick chorioallantoic membrane (CAM) assay, angiogenesis; assay type: in vivo, chicken; conditions: chick embryo CAM, IC50, 48 h
From the text: The ex ovo CAM assay was used to evaluate the role of vanadium complexes in the process of angiogenesis. CAM is a chicken extraembryonic membrane and is often used to study the process of angiogenesis in vivo as it has a high density of blood and lymphatic vessels.[120] This assay consists of analyzing certain vascularized areas of the chorioallantoic membrane of a chicken embryo. Initially, o-rings are placed covering those membrane vascularized areas being then exposed to the complexes. Pictures are then taken at 0, 24, and 48 h after exposure to the complexes and the number of blood vessels present at each hour are counted and compared. The results can be observed in Figure 15.
Ex-ovo Chick Chorioallantoic Membrane (CAM) assay
The ex-ovo chorioallantoic membrane (CAM) assay was performed in order to evaluate the angiogenic potential of vanadium complexes, as already described in literature11–13. Firstly, chicken embryos were […]
concentration of each complex dissolved in PBS 1x was placed in the centre of O-rings. Beside each complex, DMSO 0.1% (v/v) was used as a control and complex distribution in chicken embryos was always performed in a different order. The embryos were incubated for 48 h at 37 °C and images were […]
Newly formed blood vessels were later manually counted, via ImageJ software.
The ex-ovo CAM assay fulfils the Directive 2010/63/ EU of the European Parliament for protection of animal models for scientific purposes.
All data are presented as Mean ± SEM from at least two independent experiments unless otherwise specified. One-way ANOVA or Student’s t-test were used to determine statistical significance (p < 0.05) using the GraphPad Prism 8 software (GraphPad Software, San Diego, CA, USA).

[16] = system: fibroblasts; assay: Cell migration (wound healing) assay; assay type: cell-based, human; conditions: 24 h, IC50
Experimental: In the wound healing assay, a region without cells is generated, being then exposed to the compounds, and the cell migration is analyzed after 24 h, to determine the cells’ ability to proliferate and refill the gap previously formed (Figure 14).[116]
as §1, §2, §3, §4, §5, §6
Control solutions were also prepared, namely a
DMSO only. […] The UV-Vis spectra were […]

[17] = Homo sapiens, Fibroblast, 48 h, read-out: IC50 fibroblasts (ligands)
[18] = Homo sapiens, 48 h, read-out: IC50 HCT116-DoxR (ligands)
[19] = read-out: IC50 fibroblasts (ligands), free ligands, 48 h of exposure, mean ± SEM
[20] = read-out: IC50 HCT116-DoxR (ligands), free ligands, 48 h of exposure, mean ± SEM
[21] = complexes at IC50, cisplatin 5 μM, Dox 6 μM
[22] = read-out: IC50 fibroblasts, 48 h of exposure, MTS, mean ± SEM
[23] = read-out: IC50 HCT116-DoxR, 48 h of exposure, MTS, mean ± SEM

T1 sequence (P02769 25-607): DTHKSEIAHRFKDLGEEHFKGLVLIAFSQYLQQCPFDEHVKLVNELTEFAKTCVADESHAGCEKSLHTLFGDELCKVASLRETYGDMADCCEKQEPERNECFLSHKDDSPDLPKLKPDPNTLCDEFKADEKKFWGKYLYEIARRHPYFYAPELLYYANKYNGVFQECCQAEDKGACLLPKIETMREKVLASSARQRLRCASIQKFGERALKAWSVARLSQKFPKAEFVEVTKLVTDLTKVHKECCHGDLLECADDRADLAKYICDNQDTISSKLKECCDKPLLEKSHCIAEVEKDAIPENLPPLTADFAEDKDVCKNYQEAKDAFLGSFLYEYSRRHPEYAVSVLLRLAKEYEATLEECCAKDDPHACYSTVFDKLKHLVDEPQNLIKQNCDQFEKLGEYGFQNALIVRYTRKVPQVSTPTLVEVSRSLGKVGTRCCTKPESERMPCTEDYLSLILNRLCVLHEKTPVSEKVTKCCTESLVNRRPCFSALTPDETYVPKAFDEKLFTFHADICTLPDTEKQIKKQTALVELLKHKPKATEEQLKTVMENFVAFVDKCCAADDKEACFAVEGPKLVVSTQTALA

| Structure (SMILES) | IC50 [1, 17] | IC50 [2, 18] | IC50 [4] | IC50 [5] | IC50 [1, 22] | IC50 [2, 23] | log P [9] | further results |
| --- | --- | --- | --- | --- | --- | --- | --- | --- |
| COc1ccnc2c1ccc1c(OC)ccnc12 [4,7-(CH3O)2-phen, 4,7-dimethoxy-1,10-phenanthroline] | 10 ± 0.01 µM | 0.3 ± 0.05 µM |  |  |  |  |  |  |
| c1ccc2c(c1)Sc1ccccc1N2c1ccnc2c1ccc1c(N3c4ccccc4Sc4ccccc43)ccnc12 [4,7-(phtiaz)2-phen, 4,7-phenothiazine-1,10-phenanthroline] |  |  |  |  |  |  |  | IC50 [1, 19]: > 50 µM; IC50 [2, 20]: > 50 µM |
| Clc1ccnc2c1ccc1c(Cl)ccnc12 [4,7-Cl2-phen, 4,7-dichloro-1,10-phenanthroline] | 17.5 ± 0.07 µM | 16.4 ± 0.01 µM |  |  |  |  |  |  |
| c1ccc(-c2ccnc3c2ccc2c(-c4ccccc4)ccnc23)cc1 [4,7-Ph2-phen, 4,7-diphenyl-1,10-phenanthroline] | 4.4 ± 0.13 µM | 0.3 ± 0.02 µM |  |  |  |  |  |  |
| c1ccc(-c2ccccn2)nc1 [Bipy, 2,2′-bipyridine] | > 50 µM | > 50 µM |  |  |  |  |  |  |
| O=C(O)c1cccc(C(=O)O)n1 [Dipic, dipicolinate] |  |  |  |  |  |  |  | IC50 [1, 19]: > 50 µM; IC50 [2, 20]: > 50 µM |
| c1cnc2c(c1)ccc1cccnc12 [Phen, 1,10-phenanthroline] | > 50 µM | 1.6 ± 0.03 µM |  |  |  |  |  |  |
| c1ccc(-c2nc3ccccc3[nH]2)nc1 [Pybim, 2-(2-pyridyl)benzimidazole] | ~50 µM | 27.1 ± 0.04 µM |  |  |  |  |  |  |
| c1ccc(-c2ncc[nH]2)nc1 [Pyim, 2-(1H-imidazol-2-yl)pyridine] | > 50 µM | > 50 µM |  |  |  |  |  |  |
| CC(C)(C)OO [TBHP, tert-butyl hydroperoxide, reference compound] |  |  |  |  |  |  |  | IC50 ([2]; Homo sapiens, 48 h, read-out: IC50 HCT116-DoxR): 42 µM |
| N.N.[Cl][Pt][Cl] [cisplatin, reference compound] |  |  | 1.9 ± 0.2 µM | 15.6 ± 5.3 µM |  |  |  | caspase-8 activity vs 0.1% DMSO [3]: higher level of caspase-8; early apoptosis [6, 21]: 31.9 ± 4.6%; late apoptosis [6, 21]: 10.0 ± 4.2%; necrosis [6, 21]: 1.6 ± 0.7%; percentage of apoptosis (total) [6, 21]: ~40%; increase of autophagic vesicles over the control [7]: ~2.3 fold; cell cycle arrest / cytostatic effect [8]: cytostatic effect |
| O=C1[O][V](=[O])[O]C(=O)c2cccc1n2.c1ccc(-c2ncc[nH]2)nc1 [complex 1, [VO(dipic)(pyim)]] |  |  | 15 ± 0.02 µM | > 50 µM | 20.2 ± 0.04 µM | > 50 µM | –0.04 |  |
| O=C1[O][V](=[O])[O]C(=O)c2cccc1n2.c1ccc(-c2nc3ccccc3[nH]2)nc1 [complex 2, [VO(dipic)(pybim)]] |  |  | 6.7 ± 0.02 µM | > 50 µM | 15.7 ± 0.04 µM | 31.4 ± 0.03 µM | –0.10 |  |
| O=C1C(=O)c2cccnc2-c2ncccc21.O=C1[O][V](=[O])[O]C(=O)c2cccc1n2 [complex 3, [VO(dipic)(phendione)]] |  |  | 0.2 ± 0.02 µM |  | 0.7 ± 0.02 µM | 1.3 ± 0.07 µM | –0.16 |  |
| Clc1ccnc2c1ccc1c(Cl)ccnc12.O=C1[O][V](=[O])[O]C(=O)c2cccc1n2 [complex 4, [VO(dipic)(4,7-Cl2-phen)]] |  |  | 2.2 ± 0.02 µM | 8.8 ± 0.02 µM | 9.2 ± 0.01 µM | ~9 µM and 9 µM | 0.44 |  |
| O=C1[O][V](=[O])[O]C(=O)c2cccc1n2.c1ccc2c(c1)Sc1ccccc1N2c1ccnc2c1ccc1c(N3c4ccccc4Sc4ccccc43)ccnc12 [complex 7, [VO(dipic)(4,7-(phtiaz)2-phen)]] |  |  | 3.1 ± 0.03 µM | > 50 µM | 21.7 ± 0.08 µM | > 50 µM | 0.62 |  |
| O=C1[O][V](=[O])[O]C(=O)c2cccc1n2.c1cnc2c(c1)ccc1cccnc12 [complex 8, [VO(dipic)(phen)]] |  |  | 2.1 ± 0.03 µM | 3.7 ± 0.01 µM | 8.6 ± 0.02 µM | 1.3 ± 0.04 µM | 0.40 | stability in RPMI culture medium [10]: no spectral changes over time; caspase-8 activity vs 0.1% DMSO [3]: higher level of caspase-8; Concentration in cells [11]: 6.705 µM; BSA fluorescence with increasing complex concentrations ([12]; BSA 20 μM, complexes 10-100 μM, pH 7.0, 24 h, 37 °C): high decrease in BSA fluorescence; interaction with BSA protein ([12]; UV-vis and fluorescence spectroscopy): capable of interacting; IC50 ([2]; read-out: IC50 2D, HCT116-DoxR 2D culture, 48 h): 1.3 ± 0.04 µM; IC50 [13]: 11.7 ± 0.62 µM; increase of percentage of apoptotic cells normalized to DMSO ([6]; IC50): 1.7 fold; early apoptosis [6, 21]: 44.8 ± 6.2%; late apoptosis [6, 21]: 4.5 ± 2.1%; necrosis [6, 21]: 0.9 ± 0.6%; percentage of apoptosis (total) [6, 21]: about 50%; viable cells [6, 21]: 49.8 ± 6.0%; ROS production, increase over the DMSO control [14]: 2.4 fold; anti-/pro-angiogenic potential, newly formed blood vessels, 48 h [15]: no anti-/pro-angiogenic potential; increase of autophagic vesicles over the control [7]: ~2.3 fold; cell migration (wound remission) [16]: do not promote cell migration |
| O=C1[O][V](=[O])[O]C(=O)c2cccc1n2.c1ccc(-c2ccccn2)nc1 [complex 9, [VO(dipic)(bipy)]] |  |  | 4.8 ± 0.02 µM | 44 ± 0.04 µM | 16.2 ± 0.04 µM | 39.2 ± 0.09 µM | 0.13 |  |
| O=C1[O][V](=[O])[O]C(=O)c2cccc1n2.c1c[nH]cn1.c1c[nH]cn1 [complex 10, [VO(dipic)(im)2]] |  |  | 14.7 ± 0.02 µM | > 50 µM | 20.1 ± 0.05 µM | > 50 µM | –1.28 |  |
| O=C1C(=O)c2cccnc2-c2ncccc21 [phendione] | 1.8 ± 0.05 µM | 0.7 ± 0.01 µM |  |  |  |  |  |  |
